Reference: ChEMBL document CHEMBL4219122, “Synthesis and biological evaluation of histone deacetylase and DNA topoisomerase II-Targeted inhibitors” (Bioorg Med Chem, 2018)
Calls of active or inactive are those of the source. The rule behind the calls is not given here.

How the values were obtained:
DMS-273 = assay: Growth inhibition of human DMS273 cells after 48 hrs by sulforhodamine B-based colorimetric assay; format: functional; details: DMS-273, 48 h
[1] = Growth inhibition of human HBC4 cells after 48 hrs by sulforhodamine B-based colorimetric assay; format: functional; details: HBC4, 48 h
HCT-116 = assay: Growth inhibition of human HCT116 cells after 48 hrs by sulforhodamine B-based colorimetric assay; format: functional, cell-based; details: HCT-116, 48 h
SF-295 = assay: Growth inhibition of human SF295 cells after 48 hrs by sulforhodamine B-based colorimetric assay; format: functional; details: SF-295, 48 h
SNB-78 = assay: Growth inhibition of human SNB78 cells after 48 hrs by sulforhodamine B-based colorimetric assay; format: functional; details: SNB-78, 48 h
SK-OV-3 = assay: Growth inhibition of human SKOV3 cells after 48 hrs by sulforhodamine B-based colorimetric assay; format: functional; details: SK-OV-3, 48 h
NCI-H460 = assay: Growth inhibition of human NCI-H460 cells after 48 hrs by sulforhodamine B-based colorimetric assay; format: functional; details: NCI-H460, 48 h
U-251 = assay: Growth inhibition of human U251 cells after 48 hrs by sulforhodamine B-based colorimetric assay; format: functional; details: U-251, 48 h
OVCAR-8 = assay: Growth inhibition of human OVCAR8 cells after 48 hrs by sulforhodamine B-based colorimetric assay; format: functional; details: OVCAR-8, 48 h
PC-3 = assay: Growth inhibition of human PC3 cells after 48 hrs by sulforhodamine B-based colorimetric assay; format: functional; details: PC-3, 48 h
SF-268 = assay: Growth inhibition of human SF268 cells after 48 hrs by sulforhodamine B-based colorimetric assay; format: functional; details: SF-268, 48 h
[2] = Growth inhibition of human BSY1 cells after 48 hrs by sulforhodamine B-based colorimetric assay; format: functional; details: BSY-1, 48 h
MKN-7 = assay: Growth inhibition of human MKN7 cells after 48 hrs by sulforhodamine B-based colorimetric assay; format: functional; details: MKN-7, 48 h
LOX IMVI = assay: Growth inhibition of human LOXIMVI cells after 48 hrs by sulforhodamine B-based colorimetric assay; format: functional
NCI-H23 = assay: Growth inhibition of human NCI-H23 cells after 48 hrs by sulforhodamine B-based colorimetric assay; format: functional; details: NCI-H23, 48 h
[3] = target: T1, DNA topoisomerase 2-alpha (Homo sapiens, UniProt P11388); assay: Inhibition of human topoisomerase-2 alpha-mediated kinetoplast DNA decatenation at 200 uM after 30 mins by ethidium bromide staining based agarose gel electrophoresis
T1 sequence (P11388 whole entry): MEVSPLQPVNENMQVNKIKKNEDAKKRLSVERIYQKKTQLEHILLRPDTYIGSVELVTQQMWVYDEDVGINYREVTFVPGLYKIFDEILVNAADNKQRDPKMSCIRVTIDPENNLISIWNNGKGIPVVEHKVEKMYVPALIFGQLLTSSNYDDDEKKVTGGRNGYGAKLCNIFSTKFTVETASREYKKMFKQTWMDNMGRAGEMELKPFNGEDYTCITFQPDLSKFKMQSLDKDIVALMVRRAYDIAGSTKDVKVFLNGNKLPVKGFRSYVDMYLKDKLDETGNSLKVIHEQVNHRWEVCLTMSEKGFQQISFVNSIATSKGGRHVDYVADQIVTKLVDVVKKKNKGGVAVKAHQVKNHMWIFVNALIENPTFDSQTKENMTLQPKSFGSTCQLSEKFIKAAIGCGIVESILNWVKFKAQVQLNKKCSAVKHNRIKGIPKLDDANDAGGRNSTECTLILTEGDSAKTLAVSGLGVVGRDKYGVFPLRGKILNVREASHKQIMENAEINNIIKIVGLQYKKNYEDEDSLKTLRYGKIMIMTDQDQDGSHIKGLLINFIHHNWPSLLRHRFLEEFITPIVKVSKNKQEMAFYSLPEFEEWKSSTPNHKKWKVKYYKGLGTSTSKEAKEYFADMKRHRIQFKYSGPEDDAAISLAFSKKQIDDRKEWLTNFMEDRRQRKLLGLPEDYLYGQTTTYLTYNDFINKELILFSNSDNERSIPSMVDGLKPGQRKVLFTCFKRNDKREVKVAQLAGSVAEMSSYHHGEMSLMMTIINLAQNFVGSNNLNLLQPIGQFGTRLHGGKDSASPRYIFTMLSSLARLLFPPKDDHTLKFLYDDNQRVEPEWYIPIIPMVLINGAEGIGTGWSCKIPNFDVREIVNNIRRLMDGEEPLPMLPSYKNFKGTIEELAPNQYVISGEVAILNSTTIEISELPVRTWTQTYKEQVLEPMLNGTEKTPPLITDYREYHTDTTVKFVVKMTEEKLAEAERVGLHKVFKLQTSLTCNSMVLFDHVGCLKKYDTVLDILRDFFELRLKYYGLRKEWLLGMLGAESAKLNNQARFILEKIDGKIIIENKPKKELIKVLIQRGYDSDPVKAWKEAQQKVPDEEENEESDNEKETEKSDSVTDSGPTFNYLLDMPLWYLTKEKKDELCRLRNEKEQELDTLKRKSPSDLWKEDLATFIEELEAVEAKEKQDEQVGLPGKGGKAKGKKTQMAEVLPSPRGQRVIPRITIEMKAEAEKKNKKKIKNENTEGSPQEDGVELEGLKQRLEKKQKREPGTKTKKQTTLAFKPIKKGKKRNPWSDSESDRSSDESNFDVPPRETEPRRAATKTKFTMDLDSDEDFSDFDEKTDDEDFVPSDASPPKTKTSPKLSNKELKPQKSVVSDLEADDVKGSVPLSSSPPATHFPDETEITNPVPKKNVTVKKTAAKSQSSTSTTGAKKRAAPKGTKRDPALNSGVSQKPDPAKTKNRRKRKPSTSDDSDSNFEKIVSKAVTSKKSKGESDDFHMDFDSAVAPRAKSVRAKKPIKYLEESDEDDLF

NCI-H226 = assay: Growth inhibition of human NCI-H226 cells after 48 hrs by sulforhodamine B-based colorimetric assay; format: functional; details: NCI-H226, 48 h
MDA-MB-231 = assay: Growth inhibition of human MDA-MB-231 cells after 48 hrs by sulforhodamine B-based colorimetric assay; format: functional; details: MDA-MB-231, 48 h
SNB-75 = assay: Growth inhibition of human SNB75 cells after 48 hrs by sulforhodamine B-based colorimetric assay; format: functional; details: SNB-75, 48 h
[4] = Growth inhibition of human HBC5 cells after 48 hrs by sulforhodamine B-based colorimetric assay; format: functional; details: HBC5, 48 h
HCC 2998 = assay: Growth inhibition of human HCC2998 cells after 48 hrs by sulforhodamine B-based colorimetric assay; format: functional; details: HCC 2998, 48 h
MCF7 = assay: Growth inhibition of human MCF7 cells after 48 hrs by sulforhodamine B-based colorimetric assay; format: functional, cell-based; details: MCF7, 48 h
NCI-H522 = assay: Growth inhibition of human NCI-H522 cells after 48 hrs by sulforhodamine B-based colorimetric assay; format: functional; details: NCI-H522, 48 h
MKN-45 = assay: Growth inhibition of human MKN45 cells after 48 hrs by sulforhodamine B-based colorimetric assay; format: functional; details: MKN-45, 48 h
RXF 631 = assay: Growth inhibition of human RXF631L cells after 48 hrs by sulforhodamine B-based colorimetric assay; format: functional; details: RXF 631, 48 h
[5] = target: T1, DNA topoisomerase 2-alpha; assay: Inhibition of human topoisomerase-2 alpha-mediated kinetoplast DNA decatenation at 100 to 400 uM after 30 mins by ethidium bromide staining based agarose gel electrophoresis
A549 = assay: Growth inhibition of human A549 cells after 48 hrs by sulforhodamine B-based colorimetric assay; format: functional; details: A549, 48 h
[6] = target: T2, Protein deacetylase HDAC6 (Mus musculus, UniProt Q9Z2V5); assay: Inhibition of recombinant mouse HDAC6 expressed in HEK293T cells co-expressing mouse HDA2 using Ac-KGLGK(Ac)-MCA as substrate after 30 mins in presence of DTT by fluorescence assay
T2 sequence (Q9Z2V5 whole entry): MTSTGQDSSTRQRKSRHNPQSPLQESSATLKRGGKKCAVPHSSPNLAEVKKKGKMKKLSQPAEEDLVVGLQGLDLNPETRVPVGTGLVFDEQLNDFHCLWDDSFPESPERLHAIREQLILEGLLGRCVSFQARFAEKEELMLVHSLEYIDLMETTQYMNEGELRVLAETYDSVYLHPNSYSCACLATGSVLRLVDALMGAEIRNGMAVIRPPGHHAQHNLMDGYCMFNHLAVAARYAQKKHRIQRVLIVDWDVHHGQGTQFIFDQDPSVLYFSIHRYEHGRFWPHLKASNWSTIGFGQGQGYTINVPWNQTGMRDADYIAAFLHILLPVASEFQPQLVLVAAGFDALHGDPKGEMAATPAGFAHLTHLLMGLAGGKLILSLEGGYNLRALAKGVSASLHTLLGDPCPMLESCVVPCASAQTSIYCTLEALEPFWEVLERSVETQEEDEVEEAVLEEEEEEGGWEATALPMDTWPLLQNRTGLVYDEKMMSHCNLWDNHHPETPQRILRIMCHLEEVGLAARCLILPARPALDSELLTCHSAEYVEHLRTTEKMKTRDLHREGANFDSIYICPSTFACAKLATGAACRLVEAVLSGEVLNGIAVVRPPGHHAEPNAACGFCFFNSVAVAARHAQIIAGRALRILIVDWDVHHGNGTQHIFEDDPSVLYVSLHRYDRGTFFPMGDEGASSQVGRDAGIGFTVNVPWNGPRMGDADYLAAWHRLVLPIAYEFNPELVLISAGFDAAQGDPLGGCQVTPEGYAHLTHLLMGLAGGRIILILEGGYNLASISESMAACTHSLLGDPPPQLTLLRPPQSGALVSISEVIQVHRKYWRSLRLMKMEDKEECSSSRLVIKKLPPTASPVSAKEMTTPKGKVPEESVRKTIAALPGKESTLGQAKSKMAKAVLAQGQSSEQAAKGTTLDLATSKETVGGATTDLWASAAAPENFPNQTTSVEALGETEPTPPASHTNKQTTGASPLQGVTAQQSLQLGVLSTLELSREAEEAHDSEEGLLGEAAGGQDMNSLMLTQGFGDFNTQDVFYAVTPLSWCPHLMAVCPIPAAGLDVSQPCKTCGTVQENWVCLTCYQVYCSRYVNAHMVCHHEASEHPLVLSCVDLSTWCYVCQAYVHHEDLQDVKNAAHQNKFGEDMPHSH

| Compound | GI50 (DMS-273) | GI50 [1] | GI50 (HCT-116; read-out: GI50) | GI50 (HCT-116; read-out: pGI50 (converted)) | GI50 (SF-295) | GI50 (SNB-78) | GI50 (SK-OV-3) | GI50 (NCI-H460) | GI50 (U-251) | GI50 (OVCAR-8) | GI50 (PC-3) | GI50 (SF-268) | GI50 [2] | GI50 (MKN-7) | GI50 (LOX IMVI) | GI50 (NCI-H23) | inhibition [3] | GI50 (NCI-H226) | GI50 (MDA-MB-231) | GI50 (SNB-75) | further results |
| --- | --- | --- | --- | --- | --- | --- | --- | --- | --- | --- | --- | --- | --- | --- | --- | --- | --- | --- | --- | --- | --- |
| Cc1cn([C@@H]2C[C@H](C3(c4ccc(NC(=O)CCCCCCC(=O)NO)cc4)SCCCS3)[C@@H](CO[Si](C)(C)C(C)(C)C)O2)c(=O)[nH]c1=O | 3.98 µM | 4.17 µM | 4.17 µM | 4.17 µM | 6.92 µM | 10 µM | 12.9 µM | 4.68 µM | 5.13 µM | 4.27 µM | 4.57 µM | 6.03 µM | 2.63 µM | 3.47 µM | 2.14 µM | 7.94 µM | Active | 10.2 µM | 3.09 µM | 5.5 µM | GI50 [4]: 6.31 µM; GI50 (HCC 2998): 8.32 µM; GI50 (MCF7; read-out: GI50): 3.89 µM; GI50 (MCF7; read-out: pGI50 (converted)): 3.89 µM; GI50 (NCI-H522): 2.69 µM; GI50 (MKN-45): 10 µM; GI50 (RXF 631): 11.2 µM; inhibition [5]: Active; GI50 (A549): 8.51 µM; IC50 [6]: 0.044 µM |
| Cc1cn([C@H]2C[C@H](C3(c4ccc(NC(=O)CCCCCCC(=O)NO)cc4)SCCCS3)[C@@H](CO[Si](C)(C)C(C)(C)C)O2)c(=O)[nH]c1=O | 3.89 µM | 3.89 µM | 3.39 µM | 3.39 µM | 4.9 µM | 6.76 µM | 4.07 µM | 3.98 µM | 3.98 µM | 3.55 µM | 4.37 µM | 4.37 µM | 2.63 µM | 2.95 µM | 1.78 µM | 4.68 µM | Active | 3.89 µM | 2.51 µM | 5.37 µM | GI50 [4]: 6.46 µM; GI50 (HCC 2998): 3.98 µM; GI50 (MCF7; read-out: GI50): 3.24 µM; GI50 (MCF7; read-out: pGI50 (converted)): 3.24 µM; GI50 (NCI-H522): 2.69 µM; GI50 (MKN-45): 3.8 µM; GI50 (RXF 631): 3.63 µM; inhibition [5]: Active; GI50 (A549): 5.01 µM; IC50 [6]: 0.051 µM |
